Experimental data from patent US9758544B2 (priority 2014, dated 2017).

System: subgenomic HCV replicon in Huh-7 cells
Assay: microbe, parasite or virus in culture
Format: cell-based
Settings: Hepatitis C virus, Huh-7, 72 h, read-out: EC50 (50% inhibitory concentration) in HCV replicon cells

For `[2H]C([2H])(OP(=O)(N[C@H](C)C(=O)OC(C)C)Oc1ccccc1)[C@@]1(F)O[C@@H](n2cnc3c(OCC)nc(N)nc32)[C@](C)(F)[C@@H]1O` (stereo partly shown) [Compound 2], the EC50 was under 1000 nM.
